We go through 15 compounds from patent US9839642B2, “Beta-tetrazolyl-propionic acids as metallo-beta-lactamase inhibitors” (priority 2014, dated 2017).

Each structure is given as a SMILES string. Where two headings read alike, the source gives them in different places.

One test concerns the target IMP-1 (Serratia marcescens, UniProt P52699). The experiment in a line: Enzyme activity: determination of IC50, fluorescence assay with CCF2-FA substrate. It is filed as biochemical. Conditions: IMP-1 enzyme 2 pM, CCF2-FA 1.25 μM, 2 hours at 25° C.; read-out: IMP1 IC50. Put shortly: (§1)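 Read-out: fluorescence, ex 405 nm / em 460 nm, after 2 h at 25° C with 1.25 μM CCF2-FA. Buffer 100 mM KH2PO4 pH 7, 0.005% Tween-20, 10 μM ZnSO4; enzyme 1 pM NDM-1, 2 pM IMP-1, 30 pM VIM-1. IC50 by 4-parameter fit.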

The target of another test is NDM-1 (Klebsiella pneumoniae, UniProt C7C422). Described as above. In kind it is biochemical. Conditions: CCF2-FA 1.25 μM, 2 hours at 25° C. The method in brief:
as §1

The target of another test is VIM-1 (Pseudomonas aeruginosa, UniProt A0A0F7KYQ8). The test is described as above. It is filed as biochemical. The note with it: VIM-1 enzyme 30 pM, CCF2-FA 1.25 μM, 2 hours at 25° C.; read-out: VIM1 IC50. Put shortly:
as §1

The subject of test [1] is Escherichia coli expressing NDM-1 (CLB30016). The experiment in a line: Antibiotic potentiation activity: synergistic concentration (MITC95) with imipenem, growth by OD600. It is filed as cell-based. Conditions: E. coli CLB30016 (NDM-1), 95% inhibition of growth. Put shortly: (§2)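 Strains grown overnight at 35° C, resuspended in saline, diluted 1:100 into 1.1×CAMHB; imipenem at 1 μg/ml or 4 μg/ml with test compound 200 μM to 0.195 μM. Incubated 22 hours to 24 hours at 35° C, OD600 read; MITC95 is lowest compound concentration inhibiting 95% of growth.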

Test [2] deals with Klebsiella pneumoniae expressing VIM-1 (IHMA599644). Described as above. In kind it is cell-based. The note with it: K. pneumoniae IHMA599644 (VIM-1), 95% inhibition of growth. Put shortly: as §2
Test [3] concerns Serratia marcescens expressing IMP-1 (CL5741). Described as above. It is filed as cell-based. Conditions: S. marcescens CL5741 (IMP-1), 95% inhibition of growth. Put shortly: as §2
Where [4] appears, read: NDM-1 enzyme 1 pM, read-out: NDM1 IC50.

Sequence of IMP-1 (P52699 19-246, looked up, species assumed): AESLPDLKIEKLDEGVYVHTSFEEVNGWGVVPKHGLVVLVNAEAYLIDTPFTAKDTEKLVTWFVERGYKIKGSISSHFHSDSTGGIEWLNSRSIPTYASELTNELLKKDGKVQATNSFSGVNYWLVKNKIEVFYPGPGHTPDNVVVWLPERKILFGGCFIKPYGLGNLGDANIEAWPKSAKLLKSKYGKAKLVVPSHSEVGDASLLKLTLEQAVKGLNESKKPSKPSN
Sequence of NDM-1 (C7C422 29-270, looked up, species assumed): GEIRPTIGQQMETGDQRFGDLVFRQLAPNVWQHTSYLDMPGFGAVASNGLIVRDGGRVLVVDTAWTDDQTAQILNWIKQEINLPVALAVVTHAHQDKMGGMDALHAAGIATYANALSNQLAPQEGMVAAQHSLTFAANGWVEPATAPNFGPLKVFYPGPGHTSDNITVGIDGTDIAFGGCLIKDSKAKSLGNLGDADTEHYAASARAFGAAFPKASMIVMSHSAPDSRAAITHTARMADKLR

As to `CC(C)C[C@H](C(=O)O)[C@H](Cc1ccc(COCC2CCNCC2)c(F)c1)c1nn[nH]n1.O=C(O)C(F)(F)F` [Example 442, 5-((2S,3S)-3-carboxy-1-(3-fluoro-4-((piperidin-4-ylmethoxy)methyl)phenyl)-5-methylhexan-2-yl)-2H-tetrazol-3-ium 2,2,2-trifluoroacetate], the figures for the IC50 on IMP-1, on NDM-1 (setting [4]) and at VIM-1 were 110 nM, 74.7 nM and 8.73 nM, respectively. Also, in test [1], the “NDM1 EC30016 MITC95” value amounted to 12.5 µM. Also, the “VIM1 KP599644 MITC95” value in test [2] was 25 µM. In test [3], the “IMP1 SM5741 MITC95” value was 6.25 µM.
With `CC(C)C[C@H](C(=O)O)[C@H](Cc1ccc(CN(C)C)c(F)c1)c1nn[nH]n1.O=C(O)C(F)(F)F` [Example 443, 1-(4-((2S,3S)-3-carboxy-5-methyl-2-(2H-tetrazol-5-yl)hexyl)-2-fluorophenyl)-N,N-dimethylmethanaminium 2,2,2-trifluoroacetate], the IC50 at IMP-1 worked out at 1060 nM; at NDM-1 (setting [4]), 298 nM; at VIM-1 it was 4.29 nM. In addition, the “NDM1 EC30016 MITC95” value in test [1] is 12.5 µM. In addition, in test [2], the “VIM1 KP599644 MITC95” value was 25 µM. Also, in test [3], the “IMP1 SM5741 MITC95” value turned out to be 37.5 µM.
In the case of `CC(C)C[C@H](C(=O)O)[C@H](Cc1ccc(CN2CCC(N)CC2)c(F)c1)c1nn[nH]n1.O=C(O)C(F)(F)F` [Example 444, 1-(4-((2S,3S)-3-carboxy-5-methyl-2-(2H-tetrazol-5-yl)hexyl)-2-fluorobenzyl)piperidin-4-aminium 2,2,2-trifluoroacetate], the IC50 was 216 nM on IMP-1, 82.9 nM on NDM-1 (setting [4]) and 76.5 nM on VIM-1. Besides, in test [1], the “NDM1 EC30016 MITC95” value was 9.375 µM. Further, the “VIM1 KP599644 MITC95” value in test [2] is 25 µM. Also, the “IMP1 SM5741 MITC95” value in test [3] turned out to be 12.5 µM.
Regarding `CC(C)C[C@H](C(=O)O)[C@H](Cc1ccc(CCN)c(F)c1)c1nn[nH]n1.O=C(O)C(F)(F)F` [Example 445, 2-(4-((2S,3S)-3-carboxy-5-methyl-2-(2H-tetrazol-5-yl)hexyl)-2-fluorophenyl)ethanaminium 2,2,2-trifluoroacetate], the half-inhibitory concentration (IC50) at IMP-1 was determined as 693 nM; on NDM-1 (setting [4]), 281 nM; on VIM-1 it was 1.98 nM. Besides, the “NDM1 EC30016 MITC95” value in test [1] was 9.375 µM. Further, the “VIM1 KP599644 MITC95” value in test [2] stood at 12.5 µM. Also, the “IMP1 SM5741 MITC95” value in test [3] was 25 µM.
Take `CC(C)C[C@H](C(=O)O)[C@H](Cc1ccc(CN2CCNCC2)c(F)c1)c1nn[nH]n1.O=C(O)C(F)(F)F` [Example 446, 4-(4-((2S,3S)-3-carboxy-5-methyl-2-(2H-tetrazol-5-yl)hexyl)-2-fluorobenzyl)piperazin-1-ium 2,2,2-trifluoroacetate]: the IC50 on IMP-1 stood at 380 nM; on NDM-1 (setting [4]), 170 nM; on VIM-1 it was 6.94 nM. Further, in test [1], the “NDM1 EC30016 MITC95” value amounted to 12.5 µM. In test [2], the “VIM1 KP599644 MITC95” value is 25 µM. The “IMP1 SM5741 MITC95” value in test [3] amounted to 18.75 µM.
For `CC(C)C[C@H](C(=O)O)[C@H](Cc1ccc(COC2CCNCC2)c(F)c1)c1nn[nH]n1.O=C(O)C(F)(F)F` [Example 447, 4-((4-((2S,3S)-3-carboxy-5-methyl-2-(2H-tetrazol-5-yl)hexyl)-2-fluorobenzyl)oxy)piperidin-1-ium 2,2,2-trifluoroacetate], the IC50 was 163 nM at IMP-1, 104 nM at NDM-1 (setting [4]) and 6.35 nM on VIM-1. Besides, the “NDM1 EC30016 MITC95” value in test [1] is 9.375 µM. Besides, in test [2], the “VIM1 KP599644 MITC95” value amounted to 25 µM. The “IMP1 SM5741 MITC95” value in test [3] was 6.25 µM.
`CCC[C@H](C(=O)O)[C@H](Cc1ccccc1C1=CCC(NC)CC1)c1nn[nH]n1` (stereo partly drawn) [Example 448, 2′-((2S,3S)-3-carboxy-2-(2H-tetrazol-5-yl)hexyl)-N-methyl-2,3,4,5-tetrahydro-[1,1′-biphenyl]-4-aminium 2,2,2-trifluoroacetate]: the results for the IC50 at IMP-1, on NDM-1 (setting [4]) and on VIM-1 were 7790 nM, 92.5 nM and 48.6 nM, respectively. Besides, the “NDM1 EC30016 MITC95” value in test [1] stood at 12.5 µM. Moreover, the “VIM1 KP599644 MITC95” value in test [2] was found to be 37.5 µM. In test [3], the “IMP1 SM5741 MITC95” value amounted to 200 µM.
As to `CCC[C@H](C(=O)O)[C@H](Cc1ccccc1C1=CCC(N)CC1)c1nn[nH]n1` (stereo partly drawn) [Example 449, 2′-((2S,3S)-3-carboxy-2-(2H-tetrazol-5-yl)hexyl)-2,3,4,5-tetrahydro-[1,1′-biphenyl]-4-aminium 2,2,2-trifluoroacetate], the values for the 50% inhibitory concentration (IC50) at IMP-1, on NDM-1 (setting [4]) and on VIM-1 were 8860 nM, 72.9 nM and 87.2 nM, respectively. In addition, the “NDM1 EC30016 MITC95” value in test [1] is 9.375 µM. Moreover, the “VIM1 KP599644 MITC95” value in test [2] was determined as 25 µM. In test [3], the “IMP1 SM5741 MITC95” value amounted to 200 µM.
As to `CC(C)C[C@H](C(=O)O)[C@H](Cc1ccc(C2=CCCNC2)c(F)c1)c1nn[nH]n1` [Example 450, 5-(4-((2S,3S)-3-carboxy-5-methyl-2-(2H-tetrazol-5-yl)hexyl)-2-fluorophenyl)-1,2,3,6-tetrahydropyridin-1-ium 2,2,2-trifluoroacetate], the 50% inhibitory concentration (IC50) at IMP-1 was 138 nM; at NDM-1 (setting [4]), 88.9 nM; on VIM-1, 2.18 nM. The “NDM1 EC30016 MITC95” value in test [1] was 7.813 µM. The “VIM1 KP599644 MITC95” value in test [2] came to 18.75 µM. Moreover, the “IMP1 SM5741 MITC95” value in test [3] came out at 6.25 µM.
Regarding `CNC1CC=C(c2ccc(C[C@H](c3nn[nH]n3)[C@H](CC(C)C)C(=O)O)cc2F)CC1` (stereo partly drawn) [Example 451, 4′-((2S,3S)-3-carboxy-5-methyl-2-(2H-tetrazol-5-yl)hexyl)-2′-fluoro-N-methyl-2,3,4,5-tetrahydro-[1,1′-biphenyl]-4-aminium 2,2,2-trifluoroacetate], the IC50 worked out at 27.2 nM at IMP-1, 30.8 nM on NDM-1 (setting [4]) and 10.1 nM at VIM-1. Also, the “NDM1 EC30016 MITC95” value in test [1] turned out to be 9.375 µM. For the same compound, in test [2], the “VIM1 KP599644 MITC95” value amounted to 25 µM. Besides, in test [3], the “IMP1 SM5741 MITC95” value is 3.125 µM.
For the compound `CC(C)C[C@H](C(=O)O)[C@H](Cc1ccc(C2=CCNC2)c(F)c1)c1nn[nH]n1` [Example 452, 3-(4-((2S,3S)-3-carboxy-5-methyl-2-(2H-tetrazol-5-yl)hexyl)-2-fluorophenyl)-2,5-dihydro-1H-pyrrol-1-ium 2,2,2-trifluoroacetate], the values for the IC50 at IMP-1, at NDM-1 (setting [4]) and on VIM-1 were 222 nM, 93.1 nM and 0.937 nM, respectively. Besides, the “NDM1 EC30016 MITC95” value in test [1] came to 9.375 µM. In addition, the “VIM1 KP599644 MITC95” value in test [2] amounted to 12.5 µM. In test [3], the “IMP1 SM5741 MITC95” value stood at 9.375 µM.
As for `CC(C)C[C@H](C(=O)O)[C@H](Cc1ccc(C2=CCNCC2)c(F)c1)c1nn[nH]n1` [Example 453, 4-(4-((2S,3S)-3-carboxy-5-methyl-2-(2H-tetrazol-5-yl)hexyl)-2-fluorophenyl)-1,2,3,6-tetrahydropyridin-1-ium 2,2,2-trifluoroacetate], the IC50 at IMP-1 worked out at 101 nM; against NDM-1 (NDM1 IC50, NDM-1 enzyme 1 pM) it was 64.5 nM; at VIM-1, 2.25 nM. Further, the “NDM1 EC30016 MITC95” value in test [1] amounted to 6.25 µM. In addition, the “VIM1 KP599644 MITC95” value in test [2] amounted to 12.5 µM. The “IMP1 SM5741 MITC95” value in test [3] amounted to 3.125 µM.
On to `CC(C)C[C@H](C(=O)O)[C@H](Cc1ccc(-c2ccc(CN)cc2)c(F)c1)c1nn[nH]n1` [Example 454, (4′-((2S,3S)-3-carboxy-5-methyl-2-(2H-tetrazol-5-yl)hexyl)-2′-fluoro-[1,1′-biphenyl]-4-yl)methanaminium 2,2,2-trifluoroacetate], for which the 50% inhibitory concentration (IC50) at IMP-1 turned out to be 24.7 nM; on NDM-1 (setting [4]), 29.5 nM; at VIM-1, 3.52 nM. Also, in test [1], the “NDM1 EC30016 MITC95” value came to 4.688 µM. Also, the “VIM1 KP599644 MITC95” value in test [2] is 25 µM. The “IMP1 SM5741 MITC95” value in test [3] is 1.563 µM.
Regarding `CC(C)C[C@H](C(=O)O)[C@H](Cc1ccc(C2=CCC(N)CC2)c(F)c1)c1nn[nH]n1` (stereo partly drawn) [Example 455, 4′-((2S,3S)-3-carboxy-5-methyl-2-(2H-tetrazol-5-yl)hexyl)-2′-fluoro-2,3,4,5-tetrahydro-[1,1′-biphenyl]-4-aminium 2,2,2-trifluoroacetate], the IC50 at IMP-1 was determined as 23.9 nM; on NDM-1 (setting [4]), 23.4 nM; at VIM-1 it was 3.38 nM. The “NDM1 EC30016 MITC95” value in test [1] was determined as 4.688 µM. The “VIM1 KP599644 MITC95” value in test [2] was found to be 18.75 µM. Also, the “IMP1 SM5741 MITC95” value in test [3] is 3.125 µM.
In the case of `CC(C)C[C@H](C(=O)O)[C@H](Cc1ccc(-c2ccc(C(N)=O)cc2)c(F)c1)c1nn[nH]n1` [Example 456, (S)-2-((S)-2-(4′-carbamoyl-2-fluoro-[1,1′-biphenyl]-4-yl)-1-(2H-tetrazol-5-yl)ethyl)-4-methylpentanoic acid], the values for the concentration for half-maximal inhibition (IC50) at IMP-1, at NDM-1 (setting [4]) and on VIM-1 were 7.09 nM, 4.35 nM and 0.637 nM, respectively. For the same compound, the “NDM1 EC30016 MITC95” value in test [1] came out at 18.75 µM. Moreover, in test [2], the “VIM1 KP599644 MITC95” value came to 37.5 µM. Further, in test [3], the “IMP1 SM5741 MITC95” value was found to be 0.7813 µM.

The term IC50 denotes the concentration that gives 50% inhibition.
